Columns and labels:
[1] = tested on: GABAergic neurons isolated at E18 from Gabrb3^ECKO; assay: In vitro neuronal migration assay after in vivo NAD+ treatment paradigm; type: cell-based, mouse; details: neurons isolated at E18 after in vivo treatment E12-E17
Experimental: Isolation and primary culture of neuronal cells: Primary culture of embryonic GABAergic neurons from CD1 telencephalon or after the saline or NAD+ treatment paradigms were performed using established methods. Briefly, embryonic brains were extracted under a stereo microscope and placed into cold PBS. After removal of the pial membrane, the telencephalon was dissected from each embryonic brain. The telencephalon was minced into 1-2 mm slices in cold PBS. Minced telencephalon was treated with 0.1× trypsin/EDTA at 37° C. for 5 min. Trypsin treatment was stopped by adding FBS-DMEM media and DNase I consecutively. […]
Neuronal migration assay: In preparation for cell migration assays, one well square culture inserts (ibidi GmbH) were placed in the center of a poly-Ornithine/Laminin coated 35 mm dish, to make a small rectangular patch that is labeled outside the dish. […] Neuronal migration was assessed by measuring the distance between the final positions of cells from the border of the rectangular patch was outlined on the first day, using ImageJ software.
To test if the prenatal NAD^+ treatment was able to influence GABAergic neuronal migration, an in vitro neuronal migration assay was performed (FIG. 6M), after the in vivo NAD^+ treatment paradigm (E12-E17). […] Images of GFP^+ cells that had entered the dorsal telencephalon at E18 were collected and analyzed. […]

[2] = tested on: Gabrb3^ECKO telencephalon; assay: Microarray gene expression profile of MGE and striatal tissue at E18; type: in vivo, mouse
Experimental: Gene expression profile analysis: RNA samples were prepared from saline-treated Gabrb3^fl/fl, saline-treated Gabrb3^ECKO and NAD^+-treated Gabrb3^ECKO groups from three different brain pools. Total RNA from each of the samples was extracted by using the PicoPure RNA Isolation kit (Arcturus) following the supplier's protocol. Microarray was performed with Mouse Gene 2.0 ST Array (Affymetrix) at the Boston University Microarray & Sequencing Resource, Boston, MA. Mouse Gene 2.0 ST CEL files were normalized to produce gene-level expression values using the implementation of the Robust Multiarray Average (RMA) in the affy package (version 1.36.1) included in the Bioconductor software suite (version 2.11). Principal component analysis (PCA) was analyzed and visualized using Transcriptome Analysis Console 4.0 (Affymetrix). Heatmap visualization and analysis were performed using Morpheus (Broad Institute, Boston, Mass., USA; software.broadinstitute.org/GENE-E/), and ranked by t-test statistics. Violin plot visualization was generated with Z-score using GraphPad Prism v8.0 (GraphPad Software, La Jolla Calif. USA). The gene ontology for gene enrichment study was performed in three GO TERM annotation categories by using the Database for Annotation, Visualization and Integrated Discovery (DAVID) v6.8. Mouse Genome Informatics (MGI) (GO TERM structure categories: cerebral cortex interneuron migration; GABAergic neuron differentiation; interneuron development; MGE derived cells).
In this exemplary embodiment, to gain deeper insights into NAD^+ mediated specific actions in the subcortical telencephalon, a micro-dissection of the MGE and striatal tissue from telencephalic slices of saline-treated Gabrb3^fl/fl mice, saline-treated Gabrb3^ECKO mice, and NAD^+-treated Gabrb3^ECKO mice at E18 was performed. RNA was further extracted, and microarray hybridization on Mouse Gene 2.0 ST arrays (Affymetrix) was performed for Subsequent gene expression analysis (FIG. 7A). Principal component analysis (PCA) plots depicted strict clustering of triplicates from the three samples in the 3D PCA table (FIG. 8A). Differentially expressed genes (fold change cut off ≥+/−50%) in the three groups were compared and represented as heat maps (FIGS. 7B-7C). […] Genes were further classified into specific categories that are essential for embryonic forebrain development: angiogenesis, neurogenesis, GABA signaling and GABA transcription related genes, and the top differentially expressed genes in each category are shown (FIGS. 9A-9E). […] Additionally, differential expression of 10 marker genes in angiogenesis and GABAergic neuron categories in saline-treated Gabrb3^fl/fl, saline-treated Gabrb3^ECKO, and NAD^+-treated Gabrb3^ECKO groups were represented as violin plots (FIGS. 7D-7G).

GAD65-GFP knock in mice = assay: E12-E17 NAD+ injection paradigm in GAD65-GFP knock in mice; type: in vivo, mouse; details: E18, vs NAD^+-untreated group
Description: Animals: Timed pregnant CD1 mice were purchased from Charles River laboratories, MA. Colonies of GAD65-GFP mice were maintained in our institutional animal facility. Tie2-cre mice and Gabrb3 floxed (Gabrb3^fl/fl) mice were obtained from Jackson Labs. The Tie2-cre transgene is known for uniform expression of cre-recombinase in endothelial cells during embryogenesis and adulthood. To selectively delete Gabrb3 in endothelial cells, Tie2-cre transgenic mice (males) were crossed to Gabrb3^fl/fl mice (females) to generate Tie2-cre; Gabrb3^fl/+ mice (males). These were further crossed with Gabrb3^fl/fl mice (females) to obtain the Gabrb3 conditional knock-outs (Tie2-cre; Gabrb3^fl/fl mice). The day of plug discovery was designated embryonic day 0 (E0). Animal experiments were in full compliance with the NIH Guide for Care and Use of Laboratory Animals and were approved by the HMRI and McLean Institutional Animal Care Committees.
To test if the prenatal NAD^+ treatment was able to influence GABAergic neuronal migration, an in vitro neuronal migration assay was performed (FIG. 6M), after the in vivo NAD^+ treatment paradigm (E12-E17). […] This aspect was further explored by using the E12-E17 NAD^+ injection paradigm in GAD65-GFP knock in mice (FIGS. 6P-6T). Images of GFP^+ cells that had entered the dorsal telencephalon at E18 were collected and analyzed. […]

NC(=O)c1ccc[n+]([C@@H]2O[C@H](COP(=O)([O-])OP(=O)(O)OC[C@H]3O[C@@H](n4cnc5c(N)ncnc54)[C@H](O)[C@@H]3O)[C@@H](O)[C@H]2O)c1 [NAD^+]
migration of β-Tubulin^+ neurons (cell number and distance) [1]: migrated robustly | GABA neuronal subtype and development genes downregulated in Gabrb3^ECKO (Calb2, Sst, Calb1, Sirt2, Ascl1, Nr2f2, Bdnf, Arx, Sox2) ([2]; E18): rescued | GABAergic pathway regulatory and axon guidance genes upregulated in Gabrb3^ECKO (Dlx4, Sirt1, Drp2, Foxg1, Daxx, Ablim1, Nrg3) ([2]; E18): restored to normal expression levels | angiogenesis genes downregulated in Gabrb3^ECKO (Fgfr3, Thbs1, Serpinf1, Tbx1, Angpt1, Mdk, Plxdc1, Efna1, Tspan12) ([2]; E18): restored to normal levels | genes related to inflammation (upregulated in saline-treated Gabrb3^ECKO) ([2]; E18): restored to normal levels | vascular/angiogenesis genes upregulated in Gabrb3^ECKO (Fgf6, Flt1, Hand2, Egf, Itgb3, Plg, Epas1, Bai1, Col4a3, Eng) ([2]; E18): restored to normal expression levels | purinergic receptor signaling genes (microarray) ([2]; vs saline-treated Gabrb3^ECKO group): notable change in purinergic receptor signaling genes | gene expression profile (heat map clusters) ([2]; vs saline-treated Gabrb3^ECKO, fold change cut off ≥+/−50%): shift in the gene expression profile | percentage of GFP^+ cells in dorsal telencephalon (GAD65-GFP knock in mice): significant increase in the percentage of GFP^+ cells
